Calls of active or inactive are those of the source. The rule behind the calls is not given here.
System: rodent carcinogenicity bioassays, tumor incidence
Assay: CCRIS carcinogenicity studies
Outline: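 NCI-built, expert-reviewed records of carcinogenicity and related test outcomes (mutagenicity, tumor promotion/inhibition) compiled from published and report sources, historical span 1985-2011, not updated.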

Measured: carcinogen call

CC(=O)Nc1ccc2c(c1)Cc1ccccc1-2
active: Species: DOG, Strain/Sex: BEAGLE, Route: ORAL, Dose: 8.3-10.9 MG/KG/D (AVE DAILY INTAKE) FOR 68.5-91 MO (TOTAL DOSE: 90-198 G), Tumor Site: Type of Lesion: LIVER: CARCINOMA, URINARY BLADDER: PAPILLOMA active; positive | Species: FISH, Strain/Sex: GUPPY/ MALE, FEMALE, Route: IMMERSION, Dose: 0, 1 MG/L IN WELL WATER FOR 7 D CONTINUOUS EXPOSURE, SOLUTIONS RENEWED EVERY 24 HR (STUDY DURATION: 52 WK), Tumor Site: Type of Lesion: LIVER: TUMOR active; positive | Species: HAMSTER, Strain/Sex: SYRIAN/ MALE, FEMALE, Route: INTRAPERITONEAL, ORAL, Dose: 5 MG/100 G 3/WK FOR 3 WK, THEN 0.06% IN DIET, Tumor Site: Type of Lesion: URINARY BLADDER, LIVER: CHOLANGIOCARCINOMA active; positive | Species: HAMSTER, Strain/Sex: SYRIAN/FEMALE, Route: ORAL, Dose: 0.025% IN DIET FOR LIFE, Tumor Site: Type of Lesion: LIVER: INTRAHEPATIC BILE DUCT CARCINOMA active; positive | Species: HAMSTER, Strain/Sex: SYRIAN, Route: ORAL, Dose: 5 MG FOR 22 WK THEN 15 MG FOR 4 WK, THEN 10 MG 2/WK AFTER 42 WK, Tumor Site: Type of Lesion: URINARY BLADDER: CARCINOMA active; positive | Species: MOUSE, Strain/Sex: BALB/C/FEMALE, Route: ORAL, Dose: 0, 75, 100, 150 PPM IN DIET UP TO 33 MO (STUDY DURATION: 33 MO), Dose: 0, 75, 100, 150 PPM IN DIET UP TO 33 MO (STUDY DURATION: 33 MO), Tumor Site: Type of Lesion: LIVER: HEPATOCELLULAR ADENOMA OR CARCINOMA, BLADDER: TRANSITIONAL CELL CARCINOMA active; positive | Species: MOUSE, Strain/Sex: CBA/ MALE, FEMALE, Route: ORAL, Dose: 3 MG/MOUSE 2/WK, Tumor Site: Type of Lesion: MAMMARY GLAND, URINARY BLADDER, LIVER, Tumor Site: Type of Lesion: MAMMARY GLAND, URINARY BLADDER, LIVER active; positive | Species: MOUSE, Strain/Sex: EU-PIM-1/MALE, Route: GAVAGE, Dose: 0, 25, 100 MG/KG 1/D FOR 38 WK (STUDY DURATION: 38 WK), Dose: 0, 25, 100 MG/KG 1/D FOR 38 WK (STUDY DURATION: 38 WK), Tumor Site: Type of Lesion: LYMPHATIC SYSTEM: LYMPHOMA active; positive | Species: MOUSE, Strain/Sex: R-III/ MALE, FEMALE, Route: ORAL, Dose: 3 MG/MOUSE 2/WK, Tumor Site: Type of Lesion: URINARY BLADDER, LIVER active; positive | Species: MOUSE, Strain/Sex: STRAIN-A/ MALE, FEMALE, Route: ORAL, Dose: 3 MG/MOUSE 2/WK, Tumor Site: Type of Lesion: URINARY BLADDER active; positive | Species: MOUSE, Strain/Sex: STRAIN-IF/ MALE, FEMALE, Route: ORAL, Dose: 3 MG/MOUSE 2/WK, Tumor Site: Type of Lesion: URINARY BLADDER, LIVER, MAMMARY GLAND, Tumor Site: Type of Lesion: URINARY BLADDER, LIVER, MAMMARY GLAND active; positive | Species: RABBIT, Strain/Sex: NZW/ MALE, FEMALE, Route: ORAL, Dose: 100 MG 2/WK (TOTAL DOSE 21-52 G AS POWDER), Tumor Site: Type of Lesion: URINARY BLADDER: PAPILLOMA, ADENOCARCINOMA, URETER: PAPILLOMA, ADENOCARCINOMA active; positive | Species: RABBIT, Strain/Sex: NZW/FEMALE, Route: ORAL, Dose: 100 MG IN 1 ML CORN OIL 2/WK FOR LIFE, Tumor Site: Type of Lesion: URINARY BLADDER: TRANSITIONAL CELL TUMOR, KIDNEY: TRANSITIONAL CELL TUMOR active; positive | Species: RAT, Strain/Sex: AES/FEMALE, Route: ORAL, Dose: 300 MG/KG IN SEMI-PURIFIED OR STOCK DIET, Tumor Site: Type of Lesion: EAR (DUCT): CARCINOMA active; positive | Species: RAT, Strain/Sex: ALBINO/ MALE, FEMALE, Route: ORAL, Dose: 0.036% IN DIET FOR 8 MO, Tumor Site: Type of Lesion: LIVER: HEPATOMA, MAMMARY GLAND, EAR (DUCT), Tumor Site: Type of Lesion: LIVER: HEPATOMA, MAMMARY GLAND, EAR (DUCT) active; positive | Species: RAT, Strain/Sex: ALBINO/FEMALE, Route: ORAL, Dose: 0.125% IN DIET, Tumor Site: Type of Lesion: URINARY BLADDER: CARCINOMA active; positive | Species: RAT, Strain/Sex: ALBINO/MALE, Route: ORAL, Dose: 0.018, 0.036% IN DIET FOR 90 DAYS, Tumor Site: Type of Lesion: LIVER: HEPATOMA, EAR (DUCT), INTESTINES (SMALL), Tumor Site: Type of Lesion: LIVER: HEPATOMA, EAR (DUCT), INTESTINES (SMALL) active; positive | Species: RAT, Strain/Sex: BUFFALO/ MALE, FEMALE, Route: ORAL, Dose: 0.05% IN DIET FOR 23 WK (580 MG/RAT), Tumor Site: Type of Lesion: LIVER: HEPATOMA, EAR (DUCT): CARCINOMA active; positive | Species: RAT, Strain/Sex: F344/MALE, Route: ORAL, Dose: 0.06% IN DIET FOR 3 WK, THEN CONTROL DIET FOR 1 WK, REPEATED 3X, Tumor Site: Type of Lesion: TESTES: MESOTHELIOMA, LIVER: HEPATOCELLULAR CARCINOMA, CHOLANGIOCARCINOMA active; positive | Species: RAT, Strain/Sex: FEMALE, Route: ORAL, Dose: 0.03% IN DIET, Tumor Site: Type of Lesion: EYE active; positive | Species: RAT, Strain/Sex: FEMALE, Route: ORAL, Dose: 1.62 MMOL/KG DIET FOR 8 MO, Tumor Site: Type of Lesion: MAMMARY GLAND, EAR (DUCT), INTESTINES (SMALL), Tumor Site: Type of Lesion: MAMMARY GLAND, EAR (DUCT), INTESTINES (SMALL) active; positive | Species: RAT, Strain/Sex: HOLTZMAN/FEMALE, Route: ORAL, Dose: 1.62 MMOL/KG IN DIET, Tumor Site: Type of Lesion: MAMMARY GLAND, EAR (DUCT), INTESTINES (SMALL), Tumor Site: Type of Lesion: MAMMARY GLAND, EAR (DUCT), INTESTINES (SMALL) active; positive | Species: RAT, Strain/Sex: HOLTZMAN/MALE, Route: ORAL, Dose: 1.62 MMOL/KG IN DIET, Tumor Site: Type of Lesion: LIVER, EAR (DUCT), INTESTINES (SMALL), Tumor Site: Type of Lesion: LIVER, EAR (DUCT), INTESTINES (SMALL) active; positive | Species: RAT, Strain/Sex: LONG-EVANS/ MALE, FEMALE, Route: ORAL, Dose: IN DIET, Tumor Site: Type of Lesion: EAR (AUDITORY CANAL): SQUAMOUS CELL CARCINOMA active; positive | Species: RAT, Strain/Sex: MALE, Route: ORAL, Dose: 1.62 MMOL/KG IN DIET FOR 8 MO, Tumor Site: Type of Lesion: LIVER: HEPATOMA, INTESTINES (SMALL), EAR (DUCT), Tumor Site: Type of Lesion: LIVER: HEPATOMA, INTESTINES (SMALL), EAR (DUCT) active; positive | Species: RAT, Strain/Sex: PIEBALD/ MALE, FEMALE, Route: ORAL, Dose: 4 MG DAILY IN DIET FOR 25 WK, Tumor Site: Type of Lesion: LIVER: HEPATOMA, EAR (DUCT): CARCINOMA, INTESTINES: CARCINOMA, Tumor Site: Type of Lesion: LIVER: HEPATOMA, EAR (DUCT): CARCINOMA, INTESTINES: CARCINOMA active; positive | Species: RAT, Strain/Sex: PIEBALD/FEMALE, Route: ORAL, Dose: 0.03% IN DIET, Tumor Site: Type of Lesion: MAMMARY GLAND: CARCINOMA active; positive | Species: RAT, Strain/Sex: PIEBALD/MALE, Route: DERMAL, Dose: IN ACETONE, Tumor Site: Type of Lesion: LIVER: HEPATOMA, INTESTINES: CARCINOMA active; positive | Species: RAT, Strain/Sex: SHEFFIELD/ MALE, FEMALE, Route: ORAL, Dose: 4 MG DAILY IN DIET FOR 25 WK, Tumor Site: Type of Lesion: LIVER: HEPATOMA, EAR (DUCT): CARCINOMA, INTESTINES: CARCINOMA, Tumor Site: Type of Lesion: LIVER: HEPATOMA, EAR (DUCT): CARCINOMA, INTESTINES: CARCINOMA active; positive | Species: RAT, Strain/Sex: SHERMAN/ MALE, FEMALE, Route: ORAL, Dose: 0.03% IN DIET FOR LIFE, Tumor Site: Type of Lesion: LIVER: CARCINOMA active; positive | Species: RAT, Strain/Sex: SPRAGUE-DAWLEY/FEMALE, Route: INTRAPERITONEAL, Dose: 1 MG/0.1 ML 3/WK FOR 4 WK (TOTAL DOSE 0.17 MMOL/RAT), Tumor Site: Type of Lesion: MAMMARY GLAND: ADENOCARCINOMA active; positive | Species: RAT, Strain/Sex: SPRAGUE-DAWLEY/FEMALE, Route: ORAL, Dose: 300 MG/KG IN SEMI-PURIFIED OR STOCK DIET, Tumor Site: Type of Lesion: EAR (DUCT): CARCINOMA active; positive | Species: RAT, Strain/Sex: STRAIN-CD/FEMALE, Route: ORAL, Dose: 80, 250 PPM IN DIET FOR 78 WK (LOW DOSE) OR 50 WK (HIGH DOSE), Tumor Site: Type of Lesion: LIVER: NEOPLASTIC NODULE, HEPATOCELLULAR CARCINOMA, MAMMARY GLAND: ADENOCARCINOMA active; positive | Species: RAT, Strain/Sex: STRAIN-CD/MALE, Route: ORAL, Dose: 80, 250 PPM IN DIET FOR 78 WK (LOW DOSE) OR 50 WK (HIGH DOSE), Tumor Site: Type of Lesion: LIVER: HEPATOCELLULAR CARCINOMA active; positive | Species: RAT, Strain/Sex: WISTAR/ MALE, FEMALE, Route: ORAL, Dose: 0.03% IN DIET FOR LIFE, Tumor Site: Type of Lesion: LIVER: CARCINOMA active; positive | Species: RAT, Strain/Sex: WISTAR/ MALE, FEMALE, Route: ORAL, Dose: 0.07% IN DIET, Tumor Site: Type of Lesion: LIVER: HEPATOMA active; positive | Species: RAT, Strain/Sex: WISTAR/MALE, Route: DERMAL, Dose: IN ACETONE, Tumor Site: Type of Lesion: LIVER: HEPATOMA, INTESTINES: CARCINOMA active; positive
inactive: Species: FISH, Strain/Sex: GUPPY/ MALE, FEMALE, Route: IMMERSION, Dose: 0, 1 MG/L IN WELL WATER FOR 1 6 HR EXPOSURE OR FOR 1,2,3 OR 4 12 HR EXPOSURES, MULTIPLE EXPOSURES GIVEN AT WEEKLY INTERV inactive; negative | Species: FISH, Strain/Sex: MEDAKA/ MALE, FEMALE, Route: IMMERSION, Dose: 0, 1 MG/L IN WELL WATER FOR 1 6 HR EXPOSURE OR FOR 1,2,3 OR 4 12 HR EXPOSURES, MULTIPLE EXPOSURES GIVEN AT WEEKLY INTERV inactive; negative | Species: FISH, Strain/Sex: MEDAKA/ MALE, FEMALE, Route: IMMERSION, Dose: 0, 1 MG/L IN WELL WATER FOR 7 D CONTINUOUS EXPOSURE, SOLUTIONS RENEWED EVERY 24 HR (STUDY DURATION: 52 WK) inactive; negative | Species: MOUSE, Strain/Sex: EU-PIM-1/FEMALE, Route: GAVAGE, Dose: 0, 25, 100 MG/KG 1/D FOR 38 WK (STUDY DURATION: 38 WK), Dose: 0, 25, 100 MG/KG 1/D FOR 38 WK (STUDY DURATION: 38 WK) inactive; negative
